Experimental data taken from patent publication US4693999A, “Liposomes containing steroid esters” (priority 1984, dated 1987).
Where two headings read alike, the source gives them in different places.

Columns and labels:
[1] = Spleen weight and body weight gain in the Sephadex lung edema test (systemic glucocorticoid action); format: in vivo, Sprague Dawley rats; design: Body weight gain in rel. to control: unit not given here; conditions: for Body weight gain in rel. to control: over 20 h; for % inhib. compared to control group, spleen: spleen weight, 20 h after Sephadex; for reduction of body weight gain (in words) / reduction of spleen (in words): summary of Table 1
Excerpt: (§1) Intratracheal instillation of Sephadex beads into rats leads to bronchial and also to alveolar inflammation. This provokes interstitial lung edema, which increases the lung weight, and the inflammation can be graded as the increase of the lung weight compared to a saline-instilled control group. The lung edema formation can be counteracted by pretreatment with glucocorticoids, preferably by local administration as intratracheal instillation or as inhalation. Ideally an anti-inflammatory action should be obtained only at the site of glucocorticoid application in the lung, but not in the rest of the body as this in long term treatment can lead to therapy limiting systemic side effects.
(§2) Sprague Dawley rats (225 g) were slightly anaesthetized with ether and the glucocorticoid test preparation (in liposomes suspended in saline) in a volume of 0.5 ml/kg was instilled into just the left lung lobe. Two h later a suspension of Sephadex (5 mg/kg in a volume of […] was instilled in the trachea well above the bifurcation so that the suspension reached both the left and right lung lobes. Twenty h later the rats were killed and the left and right lung lobes dissected out and weighed separately. Also the spleen weight and the body weight gain over the 20 h were determined. Control groups got vehicle instead of glucocorticoid preparation and saline instead of Sephadex suspension to determine the weight of non-drug treated Sephadex edema and the normal lung weight as well as the normal spleen weight and body weight gain.
As stated above an ideal glucocorticoid preparation should have a very high glucocorticoid activity at the site of application in lung, but with low activity outside this area. Therefore, in the selected model an optimal preparation should more or less completely block the edema in the locally pretreated left lung lobe, but have much less activity in the right lung half and no significant inhibitory action on the spleen weight and the body weight gain. It has been considered more important to search for a high degree of separation between the local activity (exemplified with the left lung) to the other activities than to search for a high absolute potency (high activity per mg drug) for the action in the left lung. In the test protocol used, doses were selected leading to a more or less complete block of the edema in the left lung and at these dose levels the extent of the other activities was estimated. At the selected dose 7-9 rats were tested in parallel. Mean±s.e.m. was calculated and compared with Student's t-test to the results of the corresponding Sephadex control group.

[2] = test system: Sephadex-included lung edema; assay: Sephadex-induced lung edema in rats (anti-inflammatory effect), glucocorticoid in liposomes instilled into left lung lobe; format: in vivo, Sprague Dawley rats; conditions: for inhibition in vivo at 3.35 µmol/kg / inhibition in vivo at 0.335 µmol/kg / inhibition in vivo at 0.0335 µmol/kg / inhibition in vivo at 0.1 µmol/kg: Rattus norvegicus; for inhibition in vivo at 3.35 µmol/kg: 3350 nmol/kg instilled in left lung lobe; for reduction of edema in left lung / protection of left lung / block of left lung edema (in words) / activity in the other lung half (in words): summary of Table 1; for reduction of edema in left lung / protection of left lung / block of left lung edema (in words): locally treated left lung; for activity in the other lung half (in words): right lung compared with left; for inhibition in vivo at 0.0335 µmol/kg: 33.5 nmol/kg instilled in left lung lobe; for inhibition in vivo at 0.1 µmol/kg: 100 nmol/kg instilled in left lung lobe
Excerpt: as §1
The differentiation between glucocorticoid actions in the treated lung region and outside this area can be tested in the following way.
as §2
As stated above an ideal glucocorticoid preparation should have a very high glucocorticoid activity at the site of application in lung, but with low activity outside this area. Therefore, in the selected model an optimal preparation should more or less completely block the edema in the locally pretreated left lung lobe, but have much less activity in the right lung half and no significant inhibitory action on the spleen weight and the body weight gain. […] In the test protocol used, doses were selected leading to a more or less complete block of the edema in the left lung and at these dose levels the extent of the other activities was estimated. At the selected dose 7-9 rats were tested in parallel.

[3] = 3350 nmol/kg instilled in left lung lobe, NS = not significant
[4] = liposomes in saline, 2 h before Sephadex, 20 h readout, locally treated lobe, read-out: % inhib. compared to control group, left lobe
[5] = liposomes in saline, 2 h before Sephadex, 20 h readout, untreated lobe, read-out: % inhib. compared to control group, right lobe
[6] = 335 nmol/kg instilled in left lung lobe, NS = not significant
[7] = 20 h, read-out: % inhib. compared to control group, left lobe
[8] = 20 h, read-out: % inhib. compared to control group, right lobe
[9] = 335 nmol/kg instilled in left lung lobe, liposomes in saline, 2 h before Sephadex, 20 h readout, locally treated lobe, read-out: % inhib. compared to control group, left lobe
[10] = 335 nmol/kg instilled in left lung lobe, liposomes in saline, 2 h before Sephadex, 20 h readout, untreated lobe, read-out: % inhib. compared to control group, right lobe
[11] = 33.5 nmol/kg instilled in left lung lobe, NS = not significant
[12] = 100 nmol/kg instilled in left lung lobe

SMILES: CCCCCCCCCCCCCCCC(=O)OCC(=O)[C@@]1(OC(=O)CC)[C@@H](C)C[C@H]2[C@@H]3CCC4=CC(=O)C=C[C@]4(C)[C@@]3(Cl)[C@@H](O)C[C@@]21C [Beclomethasone-21-palmitate-17-propionate]
- Body weight gain in rel. to control [1, 3]: -3.1
- % inhib. compared to control group, spleen [1, 3]: 5%
- inhibition in vivo at 3.35 µmol/kg [2, 4]: 87%
- inhibition in vivo at 3.35 µmol/kg [2, 5]: 47%
- reduction of edema in left lung / protection of left lung [2]: 87%

SMILES: CCCCCCCCCCCCCCCC(=O)OCC(=O)[C@@]1(O)[C@@H](C)C[C@H]2[C@@H]3CCC4=CC(=O)C=C[C@]4(C)[C@@]3(F)[C@@H](O)C[C@@]21C [Betamethasone-21-palmitate]
- Body weight gain in rel. to control [1, 6]: 0.2
- % inhib. compared to control group, spleen [1, 6]: 7%
- inhibition in vivo at 0.335 µmol/kg [2, 7]: 109%
- inhibition in vivo at 0.335 µmol/kg [2, 8]: -5%

SMILES: CCCCCCCCCCCCCCCC(=O)OCC(=O)[C@@]12OC(CCC)O[C@@H]1C[C@H]1[C@@H]3CCC4=CC(=O)C=C[C@]4(C)[C@H]3[C@@H](O)C[C@@]12C (some centres unmarked) [Budesonide-21-palmitate]
- Body weight gain in rel. to control [1, 6]: -1.4
- % inhib. compared to control group, spleen [1, 6]: 4%
- inhibition in vivo at 0.335 µmol/kg [2, 9]: 100%
- inhibition in vivo at 0.335 µmol/kg [2, 10]: 37%

SMILES: CCCCC(=O)OCC(=O)[C@@]12OC(CCC)O[C@@H]1C[C@H]1[C@@H]3CCC4=CC(=O)C=C[C@]4(C)[C@H]3[C@@H](O)C[C@@]12C (some centres unmarked) [Budesonide-21-valerate]
- Body weight gain in rel. to control [1, 6]: -0.8
- % inhib. compared to control group, spleen [1, 6]: -1%
- inhibition in vivo at 0.335 µmol/kg [2, 9]: 21%
- inhibition in vivo at 0.335 µmol/kg [2, 10]: 22%
- reduction of edema in left lung / protection of left lung [2]: up to 38%

SMILES: CCCC1O[C@@H]2C[C@H]3[C@@H]4CCC5=CC(=O)C=C[C@]5(C)[C@H]4[C@@H](O)C[C@]3(C)[C@]2(C(=O)CO)O1 (some centres unmarked) [Budesonide]
- Body weight gain in rel. to control [1, 6]: 1.6
- inhibition in vivo at 0.335 µmol/kg [2, 9]: 38%
- inhibition in vivo at 0.335 µmol/kg [2, 10]: 30%
- reduction of edema in left lung / protection of left lung [2]: up to 38%

SMILES: CCCCCCCCCCCCCCCC(=O)OCC(=O)[C@@]1(OC(=O)CC)[C@H](C)C[C@H]2[C@@H]3CCC4=CC(=O)C=C[C@]4(C)[C@@]3(F)[C@@H](O)C[C@@]21C [Dexamethasone-21-palmitate-17-propionate]
- Body weight gain in rel. to control [1, 6]: 1.0
- % inhib. compared to control group, spleen [1, 6]: 3%
- inhibition in vivo at 0.335 µmol/kg [2, 9]: 104%
- inhibition in vivo at 0.335 µmol/kg [2, 10]: 44%

SMILES: CCCCCCCCCCCCCCCC(=O)OCC(=O)[C@@]1(O)[C@H](C)C[C@H]2[C@@H]3CCC4=CC(=O)C=C[C@]4(C)[C@@]3(F)[C@@H](O)C[C@@]21C [Dexamethasone-21-palmitate]
- Body weight gain in rel. to control [1, 6]: -10.8
- reduction of body weight gain (in words) [1]: significant reduction of body weight gain
- reduction of spleen (in words) [1]: significant reduction of body weight gain and to spleen
- inhibition in vivo at 0.335 µmol/kg [2, 7]: 127%
- inhibition in vivo at 0.335 µmol/kg [2, 8]: 109%
- block of left lung edema (in words) [2]: completely blocked the left lung edema
- activity in the other lung half (in words) [2]: as high activity in the other lung half

SMILES: CCCCCCCCCCCCCCCC(=O)OCC(=O)[C@@]1(OC(=O)CC)[C@H](C)C[C@H]2[C@@H]3C[C@H](F)C4=CC(=O)C=C[C@]4(C)[C@@]3(F)[C@@H](O)C[C@@]21C [Flumethasone-21-palmitate-17-propionate]
- Body weight gain in rel. to control [1, 11]: 2.0
- % inhib. compared to control group, spleen [1, 11]: -1%
- inhibition in vivo at 0.0335 µmol/kg [2, 4]: 108%
- inhibition in vivo at 0.0335 µmol/kg [2, 5]: 43%

SMILES: CCCCCCCCCCCCCCCC(=O)OCC(=O)[C@@]12OC(C)(C)O[C@@H]1C[C@H]1[C@@H]3C[C@H](F)C4=CC(=O)C=C[C@]4(C)[C@H]3[C@@H](O)C[C@@]12C [Flunisolide-21-palmitate]
- Body weight gain in rel. to control [1, 11]: -2.6
- % inhib. compared to control group, spleen [1, 11]: 8%
- inhibition in vivo at 0.0335 µmol/kg [2, 4]: 133%
- inhibition in vivo at 0.0335 µmol/kg [2, 5]: 44%

SMILES: CCCCCCCCCCCCCCCC(=O)OCC(=O)[C@@]12OC(C)(C)O[C@@H]1C[C@H]1[C@@H]3C[C@H](F)C4=CC(=O)C=C[C@]4(C)[C@@]3(F)[C@@H](O)C[C@@]12C [Fluocinolone acetonide-21-palmitate]
- Body weight gain in rel. to control [1, 12]: -4.8
- % inhib. compared to control group, spleen [1, 12]: 15%
- reduction of body weight gain (in words) [1]: significant reduction of body weight gain
- reduction of spleen (in words) [1]: significant reduction of body weight gain and to spleen
- inhibition in vivo at 0.1 µmol/kg [2, 4]: 117%
- inhibition in vivo at 0.1 µmol/kg [2, 5]: 95%
- block of left lung edema (in words) [2]: completely blocked the left lung edema
- activity in the other lung half (in words) [2]: as high activity in the other lung half

SMILES: CCCCCCCCCCCCCCCC(=O)OCC(=O)[C@@]1(O)CC[C@H]2[C@@H]3CCC4=CC(=O)CC[C@]4(C)[C@H]3[C@@H](O)C[C@@]21C [Hydrocortisone-21-palmitate]
- Body weight gain in rel. to control [1, 6]: -1
- inhibition in vivo at 0.335 µmol/kg [2, 9]: -13%
- inhibition in vivo at 0.335 µmol/kg [2, 10]: -7%
- reduction of edema in left lung / protection of left lung [2]: up to 38%
